Literature values, collected in patent publication US20190381034A1, “PHARMACEUTICAL COMPOSITION AND METHOD FOR ACUTE ON CHRONIC LIVER FAILURE AND RELATED LIVER DISEASES” (priority 2018, published 2019).

How the values were obtained:
[1] = in vivo
[2] = laboratory test indicators, liver failure patients, oral TMZ 20 mg three times a day

SMILES: COc1ccc(CN2CCNCC2)c(OC)c1OC.Cl.Cl [TMZ, 1-[2,3,4-trimethoxybenzyl] piperazine dihydrochloride]
- liver toxicity (liver): minimal liver toxicity
- elimination half-life [1]: approximately 6 hours
- 30-day immortality rate of liver failure patients (liver failure patients; TMZ treatment group, 20 mg tablet orally three times a day, 4-week course, traditional therapeutic approach 44%): approximately 18%
- 90-day immortality rate of liver failure patients (liver failure patients; TMZ treatment group, 20 mg tablet orally three times a day, 4-week course, traditional therapeutic approach 68%): 35%
- decrease rate of alanine aminotransferase (liver failure patients; [2]): significantly raise the decrease rate
- decrease rate of aspartate transaminase (liver failure patients; [2]): significantly raise the decrease rate
- hepatic glucose metabolism (PET-CT imaging of liver) (liver failure patients; one liver failure patient, after taking TMZ): remarkably improved
